Reference: PubChem BioAssay (NCI)
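48-hour exposure; five concentrations; linearly interpolated endpoints. GI50 marks 50% less growth. The concentration for full growth arrest is given as TGI.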

Experiments:
Assay in all cases: NCI tumour cell line growth inhibition, 48 h
[1] = system: UACC-62 melanoma
[2] = system: SW-620 colon
[3] = system: HCT-15 colon
[4] = system: M14 melanoma
[5] = system: UACC-257 melanoma
[6] = system: NCI-H460 lung
[7] = system: RPMI-8226 leukemia
[8] = system: K-562 leukemia
[9] = system: SK-MEL-28 melanoma
[10] = system: HS 578T breast

Structure (SMILES): CC1(Cl)C(=O)NC(=O)N([C@H]2C[C@H](O)[C@@H](CO)O2)C1N=[N+]=[N-] (stereo partly drawn)
- TGI [1]: > 100 µM
- TGI [2]: > 100 µM
- TGI [3]: > 100 µM
- TGI [4]: > 100 µM
- TGI [5]: > 100 µM
- TGI [6]: > 100 µM
- TGI [7]: > 100 µM
- TGI [8]: > 100 µM
- TGI [9]: > 100 µM

Structure (SMILES): CC(=O)OC1(Sc2ccccc2)CC2[C@H]3COC(C)(C)O[C@H]3CC[C@@]2(C)CC1=O (stereo partly drawn)
- TGI [1]: > 100 µM
- TGI [2]: > 100 µM
- TGI [3]: > 100 µM
- TGI [4]: > 100 µM
- TGI [5]: > 100 µM
- TGI [6]: > 100 µM
- TGI [7]: 69.7 µM
- TGI [8]: > 100 µM
- TGI [9]: > 100 µM

Structure (SMILES): CN(C)CCNC(=O)c1ccc2c(c1)oc1cc3ccccc3c(=O)n12
- GI50 [1]: 17.4 µM
- TGI [1]: 33.8 µM
- GI50 [2]: 15.5 µM
- TGI [2]: 31.7 µM
- GI50 [3]: 12.8 µM
- TGI [3]: 31.4 µM
- GI50 [4]: 18.6 µM
- TGI [4]: 32.6 µM
- GI50 [5]: 21.7 µM
- TGI [5]: 37.5 µM
- GI50 [6]: 7.5 µM
- TGI [6]: 25.7 µM
- GI50 [7]: 31 µM
- TGI [7]: > 100 µM
- GI50 [8]: 35.4 µM
- TGI [8]: > 100 µM

Structure (SMILES): CC(C)(C)C1=CC(=N/N=c2\scc(-c3ccccc3)n2Cc2ccccc2)C=C(C(C)(C)C)C1=O
- TGI [1]: > 100 µM
- TGI [2]: > 100 µM
- TGI [3]: > 100 µM
- TGI [4]: > 100 µM
- TGI [5]: > 100 µM
- TGI [6]: > 100 µM
- TGI [8]: > 100 µM
- TGI [9]: > 100 µM

Structure (SMILES): O=C(NCCCN1CCN(CCCNC(=O)c2cccc3ccccc23)CC1)c1cccc2ccccc12
- TGI [1]: > 100 µM
- TGI [2]: > 100 µM
- TGI [3]: > 100 µM
- TGI [4]: > 100 µM
- TGI [5]: > 100 µM
- TGI [6]: > 100 µM
- TGI [7]: > 100 µM
- TGI [8]: > 100 µM

Structure (SMILES): N.N.N.N.N#N.N#N.[Cl-].[Os+6]
- GI50 [1]: > 100 µM
- TGI [1]: > 100 µM
- GI50 [2]: > 100 µM
- TGI [2]: > 100 µM
- GI50 [3]: > 100 µM
- TGI [3]: > 100 µM
- GI50 [4]: > 100 µM
- TGI [4]: > 100 µM
- GI50 [6]: > 100 µM
- TGI [6]: > 100 µM
- GI50 [7]: > 100 µM
- TGI [7]: > 100 µM
- GI50 [9]: > 100 µM
- TGI [9]: > 100 µM

Structure (SMILES): S=C1SCC2CCCN12 (stereo not drawn)
- TGI [1]: > 100 µM
- TGI [2]: > 100 µM
- TGI [3]: > 100 µM
- TGI [4]: > 100 µM
- TGI [5]: > 100 µM
- TGI [6]: > 100 µM
- TGI [7]: > 100 µM
- TGI [8]: > 100 µM

Structure (SMILES): O=C(CCN1CCCC1)Nc1ccc2c(Nc3ccc(F)cc3)c3ccccc3nc2c1
- GI50 [1]: 1.55 µM
- TGI [1]: 3.1 µM
- GI50 [2]: 0.64 µM
- TGI [2]: 2.29 µM
- GI50 [3]: 0.699 µM
- TGI [3]: 2.53 µM
- GI50 [4]: 1.64 µM
- TGI [4]: 3.53 µM
- GI50 [5]: 1.97 µM
- TGI [5]: 4.12 µM
- GI50 [6]: 0.211 µM
- TGI [6]: 1.38 µM
- GI50 [10]: 1740 nM
- TGI [10]: 4.54 µM
- GI50 [7]: 0.981 µM
- TGI [7]: 5.51 µM
- GI50 [9]: 1.7 µM
- TGI [9]: 3.24 µM

Structure (SMILES): O=C(c1ccccc1)c1nc2c(Cl)ccc(Cl)c2cc1C(Br)Br
- TGI [1]: 3.01 µM
- TGI [2]: 1.19 µM
- TGI [3]: 2.88 µM
- TGI [4]: 2.89 µM
- TGI [5]: 1.54 µM
- TGI [7]: 2.2 µM
- TGI [8]: 1.77 µM
- TGI [9]: 0.637 µM

Structure (SMILES): Nc1[nH]nc(Nc2ccccc2)c1-c1nc2ccccc2s1
- GI50 [1]: 1.4 µM
- TGI [1]: 2.96 µM
- GI50 [2]: 2.58 µM
- TGI [2]: 7.29 µM
- GI50 [3]: 1.18 µM
- TGI [3]: 3.04 µM
- GI50 [4]: 1.55 µM
- TGI [4]: 3.58 µM
- GI50 [6]: 1.94 µM
- TGI [6]: 4.17 µM
- GI50 [10]: 2530 nM
- TGI [10]: 9.86 µM
- GI50 [7]: 2.24 µM
- TGI [7]: 6.65 µM
- GI50 [8]: 1.88 µM
- TGI [8]: 7.81 µM
- GI50 [9]: 2.06 µM
- TGI [9]: 4.29 µM

Structure (SMILES): COCN1COCN(C)C1=O
- TGI [1]: > 100 µM
- TGI [2]: > 100 µM
- TGI [3]: > 100 µM
- TGI [4]: > 100 µM
- TGI [5]: > 100 µM
- TGI [6]: > 100 µM
- TGI [7]: > 100 µM
- TGI [8]: > 100 µM
- TGI [9]: > 100 µM

Structure (SMILES): COc1ccc(/C=C\c2cc(OC)c(OC)c(OC)c2)cc1NC(=O)/C=C/c1ccc(OC)c(OC)c1
- GI50 [1]: 3.67 µM
- TGI [1]: > 100 µM
- GI50 [2]: 4.88 µM
- TGI [2]: > 100 µM
- GI50 [3]: 4.41 µM
- TGI [3]: > 100 µM
- GI50 [4]: 4.3 µM
- TGI [4]: > 100 µM
- GI50 [5]: > 100 µM
- TGI [5]: > 100 µM
- GI50 [6]: 3.46 µM
- TGI [6]: > 100 µM
- GI50 [7]: 3.95 µM
- TGI [7]: > 100 µM
- GI50 [9]: 3.39 µM
- TGI [9]: > 100 µM

Structure (SMILES): O=C(CC1(O)C(=O)Nc2ccccc21)c1ccc(Cl)c(Cl)c1 (stereo not drawn)
- TGI [1]: > 100 µM
- TGI [2]: > 100 µM
- TGI [3]: > 100 µM
- TGI [4]: > 100 µM
- TGI [6]: > 100 µM
- TGI [7]: > 100 µM
- TGI [8]: > 100 µM
- TGI [9]: > 100 µM

Structure (SMILES): CC(C)(C)c1cc(C2c3cc4c(cc3OC(O)(CO)C2C(=O)O)OCO4)cc(C(C)(C)C)c1O (stereo not drawn) (tested in a mixture with another compound)
- TGI [1]: 18.8 µM
- TGI [2]: 33.4 µM
- TGI [3]: 26 µM
- TGI [4]: 30.7 µM
- TGI [5]: 26.4 µM
- TGI [6]: 33.3 µM
- TGI [7]: 22.7 µM
- TGI [8]: 29.6 µM
- TGI [9]: 28.7 µM

Structure (SMILES): N#CN1CC[C@@H]2CC3(CCC2C1)OCCO3 (stereo partly drawn)
- TGI [1]: > 100 µM
- TGI [2]: > 100 µM
- TGI [3]: > 100 µM
- TGI [4]: > 100 µM
- TGI [5]: > 100 µM
- TGI [6]: > 100 µM
- TGI [7]: > 100 µM
- TGI [8]: > 100 µM

Structure (SMILES): COc1ccc(C2=C(OC(C)=O)c3cccn3-c3ccc(Cl)cc3S2)cc1
- TGI [1]: > 10 µM
- TGI [2]: > 10 µM
- TGI [3]: > 10 µM
- TGI [4]: > 10 µM
- TGI [5]: > 10 µM
- TGI [7]: 6.21 µM
- TGI [8]: 5.69 µM
- TGI [9]: > 10 µM

Structure (SMILES): COc1ccc(-c2nc(NC(=O)CS(=O)(=O)c3ccc(F)cc3)sc2C)cc1
- GI50 [1]: 13.1 µM
- TGI [1]: 32.9 µM
- GI50 [2]: 13.7 µM
- TGI [2]: > 100 µM
- GI50 [3]: 12.5 µM
- TGI [3]: > 100 µM
- GI50 [4]: 19.1 µM
- TGI [4]: 55.7 µM
- GI50 [6]: 20.1 µM
- TGI [6]: 51.5 µM
- GI50 [10]: 14800 nM
- TGI [10]: 63.3 µM
- GI50 [7]: 17.6 µM
- TGI [7]: 56.5 µM
- GI50 [8]: 3.94 µM
- TGI [8]: > 100 µM
- GI50 [9]: 20.1 µM
- TGI [9]: 62 µM

Structure (SMILES): CN(C)CCCNc1ccnc2c([N+](=O)[O-])cccc12
- TGI [2]: 37.1 µM
- TGI [3]: 43.7 µM
- TGI [4]: > 100 µM
- TGI [5]: 30.9 µM
- TGI [6]: 39.2 µM
- TGI [7]: 69.4 µM
- TGI [9]: > 100 µM

Structure (SMILES): CC1=CC(=O)NP(=O)(Oc2ccc(Cl)cc2)N1 (stereo not drawn)
- TGI [1]: > 100 µM
- TGI [2]: > 100 µM
- TGI [3]: > 100 µM
- TGI [4]: > 100 µM
- TGI [5]: > 100 µM
- TGI [6]: > 100 µM
- TGI [7]: > 100 µM
- TGI [8]: > 100 µM
- TGI [9]: > 100 µM
